Source: ChEMBL document CHEMBL5390272, “Discovery of a potent and selective human AC2 inhibitor based on 7-deazapurine analogues of adefovir” (Bioorg Med Chem, 2023)

Experiments:
HL-60 = experiment: Cytotoxicity against human HL-60 cells by CellTiter-Glo 2.0 assay; assay type: functional, cell-based
HepG2 = experiment: Cytotoxicity against human HepG2 cells by CellTiter-Glo 2.0 assay; assay type: functional, cell-based
HEK293 = experiment: Cytotoxicity against AC1 expressed HEK293 cells by CellTiter-Glo 2.0 assay relative to control; assay type: toxicity, cell-based; design: concentration or dose not given beside the values; details: human
[1] = Cytotoxicity against mouse J774.A1 cells assessed as cell viability at 10 uM incubated for 5 hrs by Cell Titer-Glo Luminescent Cell Viability assay relative to control; assay type: toxicity, cell-based; details: read-out: Activity
CCRF-CEM = experiment: Cytotoxicity against human CCRF-CEM cells by CellTiter-Glo 2.0 assay; assay type: functional, cell-based
NHDF = experiment: Cytotoxicity against human NHDF cells by CellTiter-Glo 2.0 assay; assay type: toxicity, cell-based
[2] = Inhibition of Bordetella pertussis Adenylate cyclase toxin in mouse J774.A1 cells preincubated for 5 hrs followed by ACT addition and measured after 30 mins by CatchPointcAMP immunoassay method; assay type: cell-based
HeLa S3 = experiment: Cytotoxicity against human HeLa S3 cells by CellTiter-Glo 2.0 assay; assay type: functional, cell-based

Compound | IC50 (HL-60) | IC50 (HepG2) | Activity (HEK293) | viability at 5 h, 10 µM [1] | IC50 (CCRF-CEM) | IC50 (NHDF) | IC50 [2] | IC50 (HeLa S3)
COc1ccc(-c2cn(CCOCP(=O)(N[C@@H](Cc3ccccc3)C(=O)OC(C)C)N[C@@H](Cc3ccccc3)C(=O)OC(C)C)c3ncnc(N)c23)cc1 | 6.52 µM | > 10 µM | -17% | 112% | 5.81 µM | > 10 µM | 1.49 µM | –
CC(C)OC(=O)[C@H](Cc1ccccc1)NP(=O)(COCCn1cc(-c2ccco2)c2c(N)ncnc21)N[C@@H](Cc1ccccc1)C(=O)OC(C)C | 0.66 µM | 0.99 µM | -9% | 43% | 0.99 µM | 0.35 µM | – | 1.29 µM
CC(C)OC(=O)[C@H](Cc1ccccc1)NP(=O)(COCCn1cc(-c2cccc(C(N)=O)c2)c2c(N)ncnc21)N[C@@H](Cc1ccccc1)C(=O)OC(C)C | 5.75 µM | > 10 µM | 94% | 85% | > 10 µM | > 10 µM | 2.5 µM | > 10 µM
CC(C)OC(=O)[C@H](Cc1ccccc1)NP(=O)(COCCn1cc(-c2cccc(NS(C)(=O)=O)c2)c2c(N)ncnc21)N[C@@H](Cc1ccccc1)C(=O)OC(C)C | 7.08 µM | > 10 µM | 98% | 87% | 6.92 µM | > 10 µM | 2.95 µM | 15.2 µM
C#Cc1cn(CCOCP(=O)(N[C@@H](Cc2ccccc2)C(=O)OC(C)C)N[C@@H](Cc2ccccc2)C(=O)OC(C)C)c2ncnc(N)c12 | 6.46 µM | 7.9 µM | 85% | 129% | 5.77 µM | > 10 µM | > 10 µM | > 10 µM
CC(C)OC(=O)[C@H](Cc1ccccc1)NP(=O)(COCCn1cc(-c2ccc([N+](=O)[O-])cc2)c2c(N)ncnc21)N[C@@H](Cc1ccccc1)C(=O)OC(C)C | 4.58 µM | > 10 µM | 97% | 113% | 4.08 µM | > 10 µM | 1.26 µM | 2.95 µM
CC(C)OC(=O)[C@H](Cc1ccccc1)NP(=O)(COCCn1cc(C#Cc2ccccc2)c2c(N)ncnc21)N[C@@H](Cc1ccccc1)C(=O)OC(C)C | 4.75 µM | 7.24 µM | -9% | 116% | 4.49 µM | > 10 µM | > 10 µM | 5.3 µM
COc1ccc(-c2cn(CCOCP(=O)(OCOC(=O)C(C)(C)C)OCOC(=O)C(C)(C)C)c3ncnc(N)c23)cc1 | > 10 µM | > 10 µM | – | 85% | > 10 µM | > 10 µM | 10.2 µM | > 10 µM
CC(C)OC(=O)[C@H](Cc1ccccc1)NP(=O)(COCCn1cc(-c2ccccc2)c2c(N)ncnc21)N[C@@H](Cc1ccccc1)C(=O)OC(C)C | 4.73 µM | 6.58 µM | -18% | 82% | 4.74 µM | > 10 µM | 13.3 µM | 5.28 µM
CC(C)OC(=O)[C@H](Cc1ccccc1)NP(=O)(COCCn1cc(C(C)C)c2c(N)ncnc21)N[C@@H](Cc1ccccc1)C(=O)OC(C)C | 7.34 µM | > 10 µM | 51% | 121% | 6.54 µM | > 10 µM | > 10 µM | > 10 µM
CCc1cn(CCOCP(=O)(N[C@@H](Cc2ccccc2)C(=O)OC(C)C)N[C@@H](Cc2ccccc2)C(=O)OC(C)C)c2ncnc(N)c12 | 7.89 µM | > 10 µM | 90% | 125% | > 10 µM | > 10 µM | > 10 µM | > 10 µM
CC(C)OC(=O)[C@H](Cc1ccccc1)NP(=O)(COCCn1cc(-c2cccc(C#N)c2)c2c(N)ncnc21)N[C@@H](Cc1ccccc1)C(=O)OC(C)C | 3.22 µM | 9.43 µM | 29% | 111% | 3.85 µM | > 10 µM | 1.42 µM | 10.1 µM
CC(C)OC(=O)[C@H](Cc1ccccc1)NP(=O)(COCCn1cc(-c2cccc(-c3nn[nH]n3)c2)c2c(N)ncnc21)N[C@@H](Cc1ccccc1)C(=O)OC(C)C | > 10 µM | > 10 µM | 110% | 94% | > 10 µM | > 10 µM | > 10 µM | > 10 µM
